Reference: paper PMC8318231, “Rate-of-Kill (RoK) assays to triage large compound sets for Chagas disease drug discovery: Application to GSK Chagas Box” (PLoS Neglected Tropical Diseases, 2021)

Columns and labels:
[1] = system: T. cruzi intracellular amastigotes in H9c2 cells; test: Rate-of-Kill (RoK) high-content imaging assay, amastigotes per cell (AM/CELL) and curve descriptors; format: cell-based, Trypanosoma cruzi; design: key to ME_24h / ME_48h / ME_72h: % reduction in parasite burden (cidal response); t50pct_MCC50 / t50pct_Cmax: unit not given here; conditions: for ME_24h: 24h; for ME_48h: 48h; for ME_72h: 72h; for AM/CELL NORM: sheet figure 4 A; for t50%_Cmax / tlag_Cmax / t50pct_Cmax: at Cmax; for ME_24h (%): maximum effect at 24 h; for ME_24h (%) / ME_48h (%) / ME_72h (%): RoK assay; for ME_48h (%): maximum effect at 48 h; for ME_72h (%): maximum effect at 72 h; for ME 24h (maximum effect at 24 hours, intracellular amastigotes): maximum percentage of parasite burden reduction reached by any concentration
In short: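 Readouts at each time point are amastigotes per cell and host nuclei count (cytotoxicity), from DRAQ5 high-content imaging. Infection: trypomastigotes on H9c2 at MOI 8 for 18 h. Dosing was 5 μM single point or 11 points, 1/3 steps from 50 μM. Effect scaled between 4 h infected and uninfected controls.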

TcCYP51 = conditions: formerly reported; cited from earlier work

SMILES	ME_24h ([1]; figure 5)	ME_48h ([1]; figure 5)	ME_72h ([1]; figure 5)	MCCE ([1]; RoK curve descriptor) [µM]	AM/CELL NORM ([1]; Time 4)	AM/CELL NORM ([1]; Time 24)	AM/CELL NORM ([1]; Time 48)	AM/CELL NORM ([1]; Time 72)	tlag_Cmax [1] [h]	t50pct_Cmax ([1]; figure 5)	tlag_Cmax ([1]; figure 5)	t50pct_MCC50 ([1]; at MCC50, figure 5)	tlag_MCC50 ([1]; at MCC50, figure 5)	MCCE ([1]; figure 5)	ME_24h (%) [1] [%]	ME_48h (%) [1] [%]	ME_72h (%) [1] [%]	ME 24h (maximum effect at 24 hours, intracellular amastigotes) [1] [%]	CYP51 pIC50 (TcCYP51)	MCC50 ([1]; figure 5) [µM]	also measured
Cn1cc(CN2CCN(c3ccc4c(c3)CCN(C(=O)[C@H]3C[C@@H]3c3ccccc3)CC4)CC2)cn1 [TCMDC-143537]	33.1689	35.5175	52.5957	0.6	1.751	33.1689	30.0543	50.1418	4.0	72	4	72	24	0.6173	33.2	35.5	52.6	33.1689	4.8		MCC50 ([1]; RoK curve descriptor): 16.7 µM; t50%_Cmax [1]: 72.0 h; t50%_MCC50 ([1]; at MCC50): 72.0 h; tlag_MCC50 ([1]; at MCC50): 24.0 h; MCC50 ([1]; figure 5, in µM): 16.6667
O=C(CN(c1cccc(C(F)(F)F)c1)S(=O)(=O)c1ccc(Cl)cc1)NCc1ccc(F)c(F)c1 [TCMDC-143548]	-13.6646	17.5808	36.7488	0.6	27.6101	-54.8458	-14.5763	13.9259	24.0	72	24	72	72	0.6173	-13.7	17.6	36.8	-13.6646	6.8	50	
COc1ccc(S(=O)(=O)NCc2ccc(-c3ccc(CN(C)CCO)cc3)cc2)cc1.O=C(O)C(F)(F)F [TCMDC-143549]	31.0393	40.4277	76.5332	5.6	-7.714	31.0393	40.4277	76.5332	4.0	72	4	72	24	5.556	31.0	40.4	76.5	31.0393	4.8		MCC50 ([1]; RoK curve descriptor): 16.7 µM; t50%_Cmax [1]: 72.0 h; t50%_MCC50 ([1]; at MCC50): 72.0 h; tlag_MCC50 ([1]; at MCC50): 24.0 h; MCC50 ([1]; figure 5, in µM): 16.6667
CCCN1CCN(Cc2ccc(S(=O)(=O)Nc3cccc(C)c3)cc2)CC1.O=C(O)C(F)(F)F.O=C(O)C(F)(F)F [TCMDC-143550]	-35.0895	33.2327	65.1227	0.6	-2.745	-35.0895	33.2327	54.4775	24.0	72	24	72	24	0.6173	-35.1	33.2	65.1	-35.0895	< 4		MCC50 ([1]; RoK curve descriptor): 1.9 µM; t50%_Cmax [1]: 72.0 h; t50%_MCC50 ([1]; at MCC50): 72.0 h; tlag_MCC50 ([1]; at MCC50): 24.0 h; MCC50 ([1]; figure 5, in µM): 1.852
O=C(CSc1ccc(-c2ccccn2)nn1)Nc1ccc(Cl)cc1 [TCMDC-143552]	-18.5463	-23.0005	85.8726	5.6	7.37	-202.586	-606.539	-482.613	48.0	72	48	72	48	5.556	-18.6	-23.0	85.9	-18.5463	< 4		MCC50 ([1]; RoK curve descriptor): 16.7 µM; t50%_MCC50 ([1]; at MCC50): 72.0 h; tlag_MCC50 ([1]; at MCC50): 48.0 h; MCC50 ([1]; figure 5, in µM): 16.6667
c1ccc2c(CCOc3nccnc3-c3ccncc3)c[nH]c2c1 [TCMDC-143562]	-24.9705	30.5632	12.8696	0.2	-8.107	-35.3498	30.5632	-2.217	24.0	72	24	72	72	0.2058	-25.0	30.6	12.9	-24.9705	7.2	50	
O=C(Nc1ccc(Br)c(Cl)c1)Nc1ccc2c(c1)OCO2 [TCMDC-143588]	4.143	11.8076	-0.7061	5.6	16.6619	4.143	11.8076	-47.3133	24.0	72	24	72	72	5.556	4.1	11.8	-0.7	4.143	< 4	50	
COc1cccc(C(=O)[C@H]2C[C@@H]2CN(Cc2cccnc2)Cc2cccnc2)c1 [TCMDC-143593]	-243.773	-91.7284	36.534	0.02	-1.514	-270.363	-91.7284	-0.04888	24.0	72	24	72	72	0.02286	-243.8	-91.7	36.5	-243.773	7.2	50	
Clc1ccc(Sc2cnccc2N2CCOCC2)cc1 [TCMDC-143602]	-12.5205	-29.081	15.6088	0.2	3.934	-12.5205	-29.081	-95.1907	72.0	72	72	72	72	0.2058	-12.5	-29.1	15.6	-12.5205	7.5	50	
